From PubChem BioAssay AID330 (DTP/NCI, 2004) come the findings set out here.

“And” between values parts separate entries of the source, which are not always exact repeats. Equal entries are not always repeated. Inconclusive results and toxic doses are left out.

The subject of the test is P388 leukemia ip, CD2F1 mice, survival T/C. Description: NCI In Vivo Anticancer Drug Screen. Data for tumor model P388 Leukemia (intraperitoneal) in CD2F1 (CDF1) mice. Conditions: endpoint: median survival time, higher = longer survival. In a few lines: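 Mice carrying the transplanted tumor received test compound or vehicle. Survival was recorded in each group, and the value is the treated-group measurement divided by that of the vehicle-treated control group.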

[1] abbreviates: dose: 50.0 mg/kg/injection, schedule: Q01DX005 (ip), vehicle: saline with Tween-80.
Setting [2] is: dose: 100.0 mg/kg/injection, schedule: Q01DX005 (ip), vehicle: saline with Tween-80.
Where [3] appears, read: dose: 200.0 mg/kg/injection, schedule: Q01DX005 (ip), vehicle: saline with Tween-80.
The mark [4] stands for this setting: dose: 50.0 mg/kg/injection, schedule: Q01DX009 (ip), vehicle: saline with Tween-80.
Where [5] appears, read: dose: 100.0 mg/kg/injection, schedule: Q01DX009 (ip), vehicle: saline with Tween-80.
Where [6] appears, read: dose: 200.0 mg/kg/injection, schedule: Q01DX009 (ip), vehicle: saline with Tween-80.
The mark [7] stands for this setting: dose: 50.0 mg/kg/injection, schedule: Q01DX005 (ip), vehicle: saline.
Where [8] appears, read: dose: 60.0 mg/kg/injection, schedule: Q01DX005 (ip), vehicle: saline with Tween-80.
Setting [9] is: dose: 120.0 mg/kg/injection, schedule: Q01DX005 (ip), vehicle: saline with Tween-80.
The mark [10] stands for this setting: dose: 240.0 mg/kg/injection, schedule: Q01DX005 (ip), vehicle: saline with Tween-80.
The mark [11] stands for this setting: dose: 12.5 mg/kg/injection, schedule: Q01DX005 (ip), vehicle: saline.
Setting [12] is: dose: 25.0 mg/kg/injection, schedule: Q01DX005 (ip), vehicle: saline.

`CCCCNC(=O)c1ccccc1C(=O)NC1(C(=O)NCCCC)CCCC1`: the T/C by setting is: under setting [1], 101 % of control; under setting [2], 97 % of control; under setting [3], 93 % of control.
For `COC(=O)C(O)NC(N)=O` (centres undefined), the T/C is 98 % of control under setting [4], 94 % of control under setting [5] and 89 % of control under setting [6].
Turning to `C=CCSc1nc2ccc(NCn3c(=S)sc4cc([N+](=O)[O-])ccc43)cc2s1`, the T/C is, setting by setting: (dose: 100.0 mg/kg/injection, schedule: Q04DX003 (ip), vehicle: Klucel (hydroxypropylcellulose) (HPC)) 90 % of control; (dose: 200.0 mg/kg/injection, schedule: Q04DX003 (ip), vehicle: Klucel (hydroxypropylcellulose) (HPC)) 86 % of control.
Turning to `CCC12COC3(C)CCC(C)(OC1)N23` (centres undefined), the T/C by setting is: under setting [7], 100 % of control; under setting [4], 91 % of control; (dose: 100.0 mg/kg/injection, schedule: Q01DX005 (ip), vehicle: saline) 100 % of control; under setting [5], 91 % of control; (dose: 200.0 mg/kg/injection, schedule: Q01DX005 (ip), vehicle: saline) 103 % of control; under setting [6], 98 % of control.
In the case of `CC[Si](C#CCOc1ccccc1C1OCCO1)(CC)CC`, the T/C under setting [8] is 105 % of control, the T/C under setting [9] was 101 % of control and the T/C under setting [10] was 99 % of control.
Turning to `Cc1ccc(O)c2c(NCCCCCCNc3cc(C)[n+](C)c4c(C)ccc(O)c34)cc(C)[n+](C)c12`, the T/C reads like this: (dose: 12.5 mg/kg/injection, schedule: Q01DX005 (ip), vehicle: saline with Tween-80) 99 % of control; (dose: 25.0 mg/kg/injection, schedule: Q01DX005 (ip), vehicle: saline with Tween-80) 112 % of control; under setting [1], 92 % of control.
Regarding `CC12c3ccccc3C(C)(c3ccccc31)C(C(=O)O)C2Br` (centres undefined), the T/C (dose: 50.0 mg/kg/injection, schedule: Q01DX005 (ip), vehicle: Klucel (hydroxypropylcellulose) (HPC)) was 100 % of control; the T/C (dose: 100.0 mg/kg/injection, schedule: Q01DX005 (ip), vehicle: Klucel (hydroxypropylcellulose) (HPC)) was 103 % of control; the T/C (dose: 200.0 mg/kg/injection, schedule: Q01DX005 (ip), vehicle: Klucel (hydroxypropylcellulose) (HPC)) is 95 % of control.
As to `COCCOC(C)C(/C=N/N=C(N)N)=N/N=C(N)N` (centres undefined), the T/C is 101 % of control under setting [11]; 103 % of control under setting [12]; 99 % of control and 101 % of control under setting [7].
For the molecule `COc1cccc2c1C(=O)c1c(O)c3c(c(O)c1C2=O)C[C@@](O)(C(C)=O)C[C@@H]3OC1CC(N(C)Cc2ccccc2)C(O)C(C)O1` (some centres undefined), the T/C is, setting by setting: (dose: 3.13 mg/kg/injection, schedule: Q04DX003 (ip), vehicle: distilled water + Tween-80) 111 % of control; (dose: 6.25 mg/kg/injection, schedule: Q04DX003 (ip), vehicle: distilled water + Tween-80) 101 % of control; (dose: 12.5 mg/kg/injection, schedule: Q04DX003 (ip), vehicle: distilled water + Tween-80) 118 % of control; (dose: 25.0 mg/kg/injection, schedule: Q04DX003 (ip), vehicle: distilled water + Tween-80) 172 % of control.
For the molecule `COC(=O)Cc1ccccc1-n1nccc1S(C)=O` (centres undefined), the T/C runs as follows: under setting [8], 109 % of control; under setting [9], 104 % of control; under setting [10], 106 % of control.
As to `COc1ccc(C2=C[P+](c3ccccc3)(c3ccccc3)C=C(c3ccccc3)O2)cc1`, the T/C is, setting by setting: (dose: 0.75 mg/kg/injection, schedule: Q01DX005 (ip), vehicle: saline with Tween-80) 100 % of control and 110 % of control; (dose: 0.75 mg/kg/injection, schedule: Q01DX005 (ip), vehicle: saline) 120 % of control; (dose: 1.5 mg/kg/injection, schedule: Q01DX005 (ip), vehicle: saline with Tween-80) 108 % of control and 119 % of control; (dose: 1.5 mg/kg/injection, schedule: Q01DX005 (ip), vehicle: saline) 110 % of control; (dose: 3.0 mg/kg/injection, schedule: Q01DX005 (ip), vehicle: saline with Tween-80) 110 % of control and 120 % of control; (dose: 3.0 mg/kg/injection, schedule: Q01DX005 (ip), vehicle: saline) 120 % of control. Besides, the T/C was 114 % of control (dose: 3.12 mg/kg/injection, schedule: Q01DX005 (ip), vehicle: saline with Tween-80); 111 % of control (dose: 6.0 mg/kg/injection, schedule: Q01DX005 (ip), vehicle: saline with Tween-80); 118 % of control (dose: 6.25 mg/kg/injection, schedule: Q01DX005 (ip), vehicle: saline with Tween-80).
In the case of `NC(CCSCc1ccc(N(CCCl)CCCl)cc1)C(=O)O` (centres undefined), the T/C runs as follows: (dose: 3.13 mg/kg/injection, schedule: Q04DX003 (ip), vehicle: saline with Tween-80) 154 % of control; (dose: 6.25 mg/kg/injection, schedule: Q01DX009 (ip), vehicle: saline with Tween-80) 118 % of control; (dose: 6.25 mg/kg/injection, schedule: Q04DX003 (ip), vehicle: saline with Tween-80) 163 % of control; (dose: 12.5 mg/kg/injection, schedule: Q01DX009 (ip), vehicle: saline with Tween-80) 122 % of control; (dose: 12.5 mg/kg/injection, schedule: Q04DX003 (ip), vehicle: saline with Tween-80) 190 % of control; (dose: 25.0 mg/kg/injection, schedule: Q01DX009 (ip), vehicle: saline with Tween-80) 163 % of control and 227 % of control. Moreover, the T/C (dose: 25.0 mg/kg/injection, schedule: Q04DX003 (ip), vehicle: saline with Tween-80) is 181 % of control; the T/C under setting [4] is 95 % of control; the T/C (dose: 50.0 mg/kg/injection, schedule: Q04DX003 (ip), vehicle: saline with Tween-80) is 263 % of control; the T/C (dose: 100.0 mg/kg/injection, schedule: Q04DX003 (ip), vehicle: saline with Tween-80) was 222 % of control and 231 % of control.
As to `Cc1c(COC(=O)NC(C)C)c(COC(=O)NC(C)C)c2n1CSC2`, the T/C was 154 % of control (dose: 6.25 mg/kg/injection, schedule: Q01DX005 (ip), vehicle: Klucel + Tween-80); 169 % of control and 173 % of control (dose: 25.0 mg/kg/injection, schedule: Q01DX005 (ip), vehicle: Klucel + Tween-80).
On to `CC(C)c1cccc(C(C)C)c1NC(=O)Nc1cccc(C(F)(F)F)c1`, for which the T/C was 88 % of control (dose: 15.0 mg/kg/injection, schedule: Q01DX005 (ip), vehicle: Klucel (hydroxypropylcellulose) (HPC)); 93 % of control (dose: 30.0 mg/kg/injection, schedule: Q01DX005 (ip), vehicle: Klucel (hydroxypropylcellulose) (HPC)); 88 % of control (dose: 240.0 mg/kg/injection, schedule: Q01DX005 (ip), vehicle: Klucel (hydroxypropylcellulose) (HPC)).
As for `CC12CN3CC(C)(C1=O)C(=O)C(C)(C3)C2=O`, the T/C is, setting by setting: (dose: 60.0 mg/kg/injection, schedule: Q01DX005 (ip), vehicle: saline) 94 % of control; (dose: 120.0 mg/kg/injection, schedule: Q01DX005 (ip), vehicle: saline) 92 % of control; (dose: 240.0 mg/kg/injection, schedule: Q01DX005 (ip), vehicle: saline) 94 % of control.
For the molecule `CCCCN(CCNc1ccc(C)c2sc3ccccc3c(=O)c12)CC(C)O` (centres undefined), the T/C by setting is: under setting [1], 101 % of control; under setting [2], 104 % of control; under setting [3], 101 % of control.
On to `CC(NNC(=S)N1CCCC1)c1ccc2ccccc2n1` (centres undefined), for which the T/C is 94 % of control under setting [1], 94 % of control under setting [2] and 94 % of control under setting [3].
As for `O=C(O)Cc1ccc2c(c1O)C(=O)c1ccccc1C2=O`, the T/C reads like this: under setting [11], 98 % of control; under setting [12], 104 % of control; under setting [1], 112 % of control; under setting [7], 107 % of control.
Consider `Nc1n[n+](-c2ccc(Cl)cc2)no1`, for which the T/C (dose: 3.13 mg/kg/injection, schedule: Q01DX009 (ip), vehicle: water) was 108 % of control; the T/C (dose: 6.25 mg/kg/injection, schedule: Q01DX009 (ip), vehicle: water) is 102 % of control and 124 % of control; the T/C (dose: 12.5 mg/kg/injection, schedule: Q01DX009 (ip), vehicle: water) is 124 % of control; the T/C (dose: 25.0 mg/kg/injection, schedule: Q01DX009 (ip), vehicle: water) was 155 % of control.
Regarding `O=S(=O)(O)CNc1cccc(Cl)c1`, the T/C is 106 % of control under setting [4], 95 % of control under setting [5] and 98 % of control under setting [6].
In the case of `O=C1c2cccc3cc([N+](=O)[O-])cc(c23)C(=O)N1CCCNCCNCCCN1C(=O)c2cccc3cc([N+](=O)[O-])cc(c23)C1=O`, the T/C was 92 % of control under setting [1] and 154 % of control under setting [2].
